# According to patent US20230406850A1, “CRYSTALLINE FORM OF HETEROCYCLIC COMPOUND, PREPARATION METHOD THEREFOR AND APPLICATION THEREOF” (WUHAN LL SCIENCE AND TECHNOLOGY DEVELOPMENT CO., LTD., priority 2020, published 2023):
# Where two headings read alike, the source gives them in different places.
# Assays:
# [1] = Pharmacokinetics, crystalline form I versus crystalline form V; type: in vivo, Beagle dog; settings: 10 mg/kg po, fasting, male dogs
# Description: Beagle dog (general grade, Beijing Masi Biotechnology Co., Ltd.) was given compound A by single oral gavage to study the pharmacokinetics of the compound in plasma. The test drug (100 mg/kg dosage, 5 mL/kg administration volume) was given by gavage, and samples were collected at 10 minutes, 30 minutes, 1 hour, 2 hours, 4 hours, 6 hours, 8 hours, 10 hours, 24 hours and 48 hours after administration: peripheral venipuncture was performed, and about 1.0 mL whole blood was collected from each animal at every time point, and blood samples were collected. Within 60 minutes after blood collection, 0.2 mL of whole blood was separated into a cryopreservation tube, and deionized water was added at a ratio of 1:1, which was mixed upside down and then frozen. The remaining samples were centrifuged at 2,000 g at 2 to 8° C. for 10 min to obtain plasma samples, and the hemolysis of each sample was recorded, and the influence on detection was evaluated, and then the color of plasma was observed and recorded on the blood collection table (“−” means no hemolysis, “+” means pink supernatant and “++” means red supernatant).
# The concentration of compound A in plasma was determined by LC-MS/MS method (Non-GLP). The pharmacokinetic parameters were calculated by WinNonlin (Phoenix™, version 8.1) or other similar software. If applicable plasma drug concentration-time data are available, the following pharmacokinetic parameters are calculated: CL (clearance), Vss (steady-state apparent volume of distribution), T1/2 (elimination half-life), Cmax (peak concentration), Tmax (peak time), AUC (area under the concentration-time curve), MRT (mean residence time). Pharmacokinetic data were described by descriptive statistics, such as mean, standard deviation and sample size.
# Comparison of crystalline form and crystalline form V is the same for 3 dogs (male), 10 mg/kg po, fasting, 0.5% CMC-Na stirring for 3 hours, and then administration (suspension), and the data obtained are as shown in Table 7.
# [2] = Solubility in biological media SGF, FaSSIF and FeSSIF; type: physicochemical; settings: for Solubility / solubility at 0.5 h / solubility at 2 h: 37° C.; for solubility at 0.5 h / solubility at 2 h / solubility at 24 h: 37 °C, thermodynamic from solid
# Description: Compared with other crystalline forms, crystalline forms I, III and V show good solid properties, so their solubility was tested respectively.
# 10 mg of the sample was weighed, and then 2.0 mL of biological media buffer (i.e. the target concentration is 5 mg/mL) was added to form a suspension. The mixture was put in a constant temperature water bath shaker (37° C., 100 rpm), and sampled 500 μL at 0.5, 2 and 24 hours respectively. After filtration, the pH value and HPLC concentration of filtrate were tested respectively, and the solid sample obtained by filtration was tested by XRPD.
# [3] = Competitive slurrying experiment of crystalline forms I and V; type: physicochemical; settings: acetone, ethanol, room temperature and 60° C., three days
# Description: Competitive slurrying experiment was carried out: the same amount of crystalline forms I and V were weighed and mixed evenly, then XRPD was tested, and the results were used as T0 of competitive slurrying experiment. The mixture was slurried in acetone, ethanol and water at room temperature and 60° C. Three days later, solid samples were obtained by filtration, and. XRPD was tested.
# [4] = Dynamic vapor sorption (DVS) hygroscopicity; type: physicochemical; settings: for hygroscopicity (DVS): 80% RH
# Description: The solid was analyzed by DVS using IGA sorp dynamic vapor sorption instrument. • Temperature: 25° C. • Gas flow: 250 mL/min. • Scan cycle: 2. • Minimum test time: 30 min. • Maximum test time: 2 hours. • Waiting for balance: 98%.
# [5] = Water activity experiment (slurry in acetone/water); type: physicochemical; settings: three days
# Description: Water activity experiment was carried out. Crystalline forms I and V ([…]) were slurried in a mixed solvent in acetone/water with different water contents at room temperature and 60° C. for three days, and after three days, solid sample was filtered to test XRPD, and the experimental results are as shown in Table 4.
# [6] = Mechanical stability test (grinding and pelleting); type: physicochemical; settings: grinding 2 min and 5 min
# Description: The mechanical stability of crystalline forms I and III were investigated by grinding and pelleting. Grinding test method: the sample to be measured was put in a mortar and grinded for 2 minutes and 5 minutes respectively, then XRPD was test, and the changes of crystalline form and crystallinity were observed. Pelleting test method: the sample was placed in the die of tablet press, kept at 40 MPa for one minute, and then the crystalline form taken out to test XRPD.
# [7] = Solid-state crystal transformation between crystalline forms I and V; type: physicochemical; settings: mixture of forms I and V, oven at 60° C. and room temperature dryer, one week
# [8] = Physical and chemical stability (stability boxes, XRPD and HPLC); type: physicochemical; settings: for Initial purity (Peak area %): 0 days; for stability conclusion in words: 40° C./75% RH and 60° C., seven days; for Purity -7 days (peak area %) / XRPD: 7 days
# Description: About 10 mg of crystalline forms I, III and V were placed in the stability boxes at 40° C./75% RH (open) and 60° C. (covered) for seven days, and some samples were taken out for XRPD and HPLC tests at 0 and 7 days, respectively, to investigate their physical and chemical stability.
# [9] = male, beagle, dog, plasma, po, 10 mg/kg, 0.5% CMC-Na suspension
structure (smiles),measurement,setting,value
"COC(=O)N1CCO[C@@H](Cc2c(-c3c(F)cc(S(N)(=O)=O)cc3F)nc3cc(Cl)ccn23)C1 [Crystalline form I, methyl (S)-2-((7-chloro-2-(2,6-difluoro-4-sulfamoylphenyl)imidazo[1,2-a]pyridin-3-yl)methyl)morpholine-4-carboxylate]",AUC (crystalline form I):AUC (crystalline form V),[1],300.53%
same,AUClast,"[1]; 0.5% CMC-Na suspension, plasma",7926.33 ng·h/mL
same,Cmax,"[1]; 0.5% CMC-Na suspension, plasma",991.33 ng/mL
same,F,"[1]; 0.5% CMC-Na suspension, plasma",35.2%
same,T1/2,"[1]; 0.5% CMC-Na suspension, plasma",11.91 h
same,Tmax,"[1]; 0.5% CMC-Na suspension, plasma",2.00 h
same,AUC(0-inf),[1]; [9],8940 ng·h/mL
same,MRT last,[1]; [9],8.11 h
same,crystalline form during the solubility test,[2]; FaSSIF and FeSSIF buffer,transformed into hydrate of crystalline form IV
same,pH of filtrate,"[2]; FaSSIF, 0.5 h",6.4
same,Solubility,"[2]; FaSSIF, 0.5 h",26 µg/mL
same,pH of filtrate,"[2]; FaSSIF, 2 h",6.4
same,Solubility,"[2]; FaSSIF, 2 h",25 µg/mL
same,pH of filtrate,"[2]; FaSSIF, 24 h",6.4
same,Solubility,"[2]; FaSSIF, 24 h",34 µg/mL
same,solubility at 0.5 h,"[2]; FeSSIF, fessif, FeSSIF, 0.5 h, read-out: Solubility",72 µg/mL
same,solubility at 2 h,"[2]; FeSSIF, fessif, FeSSIF, 2 h, read-out: Solubility",83 µg/mL
same,solubility at 24 h,"[2]; FeSSIF, 24 h",107 µg/mL
same,pH of filtrate,"[2]; FeSSIF, 0.5 h",5.0
same,pH of filtrate,"[2]; FeSSIF, 2 h",5.1
same,pH of filtrate,"[2]; FeSSIF, 24 h",5.1
same,pH of filtrate,"[2]; SGF, 0.5 h",1.2
same,pH of filtrate,"[2]; SGF, 2 h",1.3
same,pH of filtrate,"[2]; SGF, 24 h",1.2
same,relative stability inferred from competitive slurrying and water activity tests,[3],more stable in organic solvent system or mixed solvent with low water content (≤10%)
same,XRPD before and after the DVS test,[4],remains unchanged
same,relative humidity above which transformed into hydrate of crystalline form IV,[4],higher than 40 % RH
same,"DVS pattern, behaviour in words",[4]; 25° C.,increases sharply
same,hygroscopicity (DVS),[4]; 25° C.,6.8%
same,The experimental results (crystalline form),"[5]; water content 10%, 60° C.",Crystalline form VI
same,The experimental results (crystalline form),"[5]; water content 10%, RT",Crystalline form I
same,The experimental results (crystalline form),"[5]; water content 50%, 60° C.",Crystalline form IV
same,The experimental results (crystalline form),"[5]; water content 50%, RT",Crystalline form IV
same,The experimental results (crystalline form),"[5]; water content 90%, 60° C.",Crystalline form IV
same,The experimental results (crystalline form),"[5]; water content 90%, RT",Crystalline form IV
same,crystalline form and crystallinity after grinding,[6],decreased significantly
same,mutual crystal transformation in solid state,[7],no mutual crystal transformation trend
same,Initial purity (Peak area %),[8],99.38 peak area %
same,Purity -7 days (peak area %),[8]; 40° C./75% RH (open),99.38 peak area %
same,stability conclusion in words,[8],good chemical stability
same,Purity -7 days (peak area %),[8]; 60° C. (covered),99.37 peak area %
"COC(=O)N1CCO[C@@H](Cc2c(-c3c(F)cc(S(N)(=O)=O)cc3F)nc3cc(Cl)ccn23)C1 [Crystalline form V, methyl (S)-2-((7-chloro-2-(2,6-difluoro-4-sulfamoylphenyl)imidazo[1,2-a]pyridin-3-yl)methyl)morpholine-4-carboxylate]",AUClast,"[1]; 0.5% CMC-Na suspension, plasma",2637.43 ng·h/mL
same,Cmax,"[1]; 0.5% CMC-Na suspension, plasma",170.43 ng/mL
same,F,"[1]; 0.5% CMC-Na suspension, plasma",11.7%
same,MRTlast,"[1]; 0.5% CMC-Na suspension, plasma",10.39 h
same,T1/2,"[1]; 0.5% CMC-Na suspension, plasma",44.35 h
same,Tmax,"[1]; 0.5% CMC-Na suspension, plasma",4.67 h
same,solubility at 0.5 h,"[2]; FaSSIF, fassif, FaSSIF, 0.5 h, read-out: Solubility",30 µg/mL
same,solubility at 2 h,"[2]; FaSSIF, fassif, FaSSIF, 2 h, read-out: Solubility",34 µg/mL
same,solubility at 24 h,"[2]; FaSSIF, 24 h",45 µg/mL
same,XRPD of remaining solid,"[2]; FaSSIF, 0.5 h",Unchanged
same,pH of filtrate,"[2]; FaSSIF, 0.5 h",6.4
same,XRPD of remaining solid,"[2]; FaSSIF, 2 h",Unchanged
same,pH of filtrate,"[2]; FaSSIF, 2 h",6.4
same,XRPD of remaining solid,"[2]; FaSSIF, 24 h",Unchanged
same,pH of filtrate,"[2]; FaSSIF, 24 h",6.4
same,XRPD of remaining solid,"[2]; FeSSIF, 0.5 h",Unchanged
same,pH of filtrate,"[2]; FeSSIF, 0.5 h",5.0
same,Solubility,"[2]; FeSSIF, 0.5 h",91 µg/mL
same,XRPD of remaining solid,"[2]; FeSSIF, 2 h",Unchanged
same,pH of filtrate,"[2]; FeSSIF, 2 h",5.0
same,Solubility,"[2]; FeSSIF, 2 h",93 µg/mL
same,XRPD of remaining solid,"[2]; FeSSIF, 24 h",Unchanged
same,pH of filtrate,"[2]; FeSSIF, 24 h",5.1
same,Solubility,"[2]; FeSSIF, 24 h",121 µg/mL
same,solubility at 0.5 h,"[2]; SGF, simulated gastric fluid, SGF, 0.5 h, read-out: Solubility",4330 µg/mL
same,solubility at 2 h,"[2]; SGF, simulated gastric fluid, SGF, 2 h, read-out: Solubility (visual observation)",> 5000 µg/mL
same,pH of filtrate,"[2]; SGF, 0.5 h",1.2
same,pH of filtrate,"[2]; SGF, 2 h",1.1
same,pH of filtrate,"[2]; SGF, 24 h",1.2
same,relative stability inferred from competitive slurrying and water activity tests,[3],stable at high temperature (60° C.) in water
same,XRPD before and after the DVS test,[4],no obvious change in the XRPD
same,hygroscopicity (DVS),[4]; 25° C.,0.7%
same,The experimental results (crystalline form),"[5]; water content 10%, 60° C.",Crystalline form VI
same,The experimental results (crystalline form),"[5]; water content 10%, RT",Crystalline form I
same,The experimental results (crystalline form),"[5]; water content 50%, 60° C.",Crystalline form IV
same,The experimental results (crystalline form),"[5]; water content 50%, RT",Crystalline form IV
same,The experimental results (crystalline form),"[5]; water content 90%, 60° C.",Crystalline form IV
same,The experimental results (crystalline form),"[5]; water content 90%, RT",Crystalline form IV
same,mutual crystal transformation in solid state,[7],no mutual crystal transformation trend
same,Initial purity (Peak area %),[8],99.29 peak area %
same,Purity -7 days (peak area %),[8]; 40° C./75% RH (open),99.28 peak area %
same,XRPD,[8]; 40° C./75% RH (open),Constant
same,stability conclusion in words,[8],good physical and chemical stability
same,Purity -7 days (peak area %),[8]; 60° C. (covered),99.30 peak area %
same,XRPD,[8]; 60° C. (covered),Constant
